In patent US7935532B2, “DWF4 polynucleotides, polypeptides and uses thereof” (Arizona Board of Regents for and on behalf of Arizona State …, priority 1999, dated 2011):

How the values were obtained:
6-week-old dwf4 plants = test: Treatment of soil-grown mature dwf4 plants with BR intermediates and BL (pedicel elongation); format: in vivo, Arabidopsis thaliana
Experimental: To determine whether the results of the seedling feeding experiments could be applicable to soil-grown mature plants, 6-week-old dwf4 plants were treated with BR intermediates and BL. Concentrations of applied intermediates were adjusted empirically to optimize responses. Consistent with the results obtained from the seedlings experiments, only 22α-hydroxylated compounds can rescue the dwf4 phenotype. The elongation response was only observed in the young tissues of the inflorescence, regardless of whether the BRs were applied locally or sprayed over the entire plant. In contrast to the striking elongation of the peduncles and pedicels, fertility was not restored by BR treatment. The sterility in dwf4 is hypothesized to be mechanical, which means that the filaments are shorter than the carpels such that the pollen is shed onto the ovary walls rather than onto the stigmatic surface. In fact, if dwf4 plants are hand pollinated using […], fertility increases.

dwf4 seedlings [1] = test: Feeding of BR biosynthetic intermediates to dwf4 seedlings in liquid media (rescue, dose-response); format: in vivo, Arabidopsis thaliana; conditions: for rescue of the light-grown dwf4 phenotype: liquid media
Experimental: In view of the results described above, we hypothesized that DWF4 mediates one or more of several steroid hydroxylation steps in the BR biosynthetic pathway. To test this, dwf4 was grown on all of the available biosynthetic intermediates in the BR biosynthetic pathways and examined to ascertain which intermediates could rescue the dwarf phenotype. In addition to the intermediates belonging to the early C-6 oxidation and late C-6 oxidation pathways (Choi et al. (1997), supra), 22α-hydroxycampesterol (22-OHCR), 6α-hydroxycastasterone (6-OHCT) (Takatsuto et al. (1997) J. Chem. Res. (synop.) 11:418-419), and […] (S. Takatsuto, T. Watanabe, T. Noguchi, and S. Fujioka, unpublished data) were synthesized and tested.
Germinated seedlings were transferred to media supplemented with one of the intermediates or BL to pinpoint the step catalyzed by DWF4. […] In addition, the rescued seedlings were less green than the dwarfs. These experiments were conducted in liquid media. Feeding experiments performed in the dark yielded similar results.
However, on CT the overall morphology of dwf4 was essentially rescued to wild-type phenotype at 3×10^−7 M and higher, whereas with 6-deoxoCT, rescue occurred with as little as 10^−7 M and may have even been inhibitory at higher concentrations. Of particular interest is the more dramatic response of the epicotyls versus the smaller response of the hypocotyls to CT. This same phenomenon was true for seedlings treated with >10^−7 M 6-deoxoCT.
A higher concentration of CT for dark-grown seedlings, compared with light-grown seedlings, 3×10^−6 M (FIG. 5B), was required to convert the hypocotyl to a length similar to that of the wild type.

dwf8-1 = test: Feeding of 22-OHCR to dwf8-1 dwarf mutant; format: in vivo, Arabidopsis thaliana; conditions: unpublished data
dwf4 seedlings [2] = test: Brassinolide response of seedlings in liquid culture (hypocotyl length); format: in vivo, Arabidopsis thaliana; conditions: liquid medium, 10^−6 M BL
Experimental: Gibberellic acid (GA) response was assayed on plants grown individually in 5.7-cm pots. Once inflorescences reached 1 to 2 mm in height, they were sprayed weekly with 1 mM GA3 (Sigma). Control plants were sprayed with water. One week after the third spraying, plants were collected, and the length of the main stem was measured between the top of the rosette and the base of the most distal pedicel; 13 to 18 plants of each line were measured per treatment. Auxin response was tested by growing seedlings for 10 days under 16 hr of light on vertically oriented agar plates containing various concentrations of 2,4-D (Gibco, Grand Island, N.Y.). Genetic interaction with the hy2 mutation was tested by growing seedlings under continuous light for 7 days. Brassinolide (BL) response was determined in liquid culture, as described by Clouse et al. (1993) supra, except that three or four seedlings were grown in each well of a 24-well culture plate for 7 days. Measurements were taken for 10 to 20 seedlings for each genotype and condition, under a dissection microscope fitted with an ocular micrometer.
In the course of our studies, we prepared a genomic library from dwf4-1, from which we isolated a clone in which a fragment of T-DNA interrupts a gene encoding a putative cytochrome P450 steroid hydroxylase.

rice lamina = conditions: Fujioka et al. (1995b); cited from earlier work

Row | Structure (SMILES) | pedicel elongation response (6-week-old dwf4 plants; 22-OHCR 10^−5 M) | rescue of the light-grown dwf4 phenotype (dwf4 seedlings [1]; light-grown seedlings) | effectiveness in rescuing the dwf4 phenotype, light versus dark (dwf4 seedlings [1]; unpublished data) | rescue of dwf8-1 dwarf mutant (dwf8-1) | bioactivity in dwf4 pedicel elongation (6-week-old dwf4 plants; BL 10^−7 M) | degree of pedicel elongation response (6-week-old dwf4 plants; BL 10^−7 M versus precursors) | dwf4 hypocotyl height (dwf4 seedlings [2]) | concentration required to convert the dwf4 hypocotyl to a length similar to wild type (dwf4 seedlings [1]; dark-grown seedlings) [µM] | concentration at which dwf4 overall morphology is rescued to wild-type phenotype (dwf4 seedlings [1]; light-grown seedlings, dose-response) | activity relative to 6-oxoCN (rice lamina) [times]
1 | CC(C)[C@H](C)C[C@H](O)[C@@H](C)[C@H]1CC[C@H]2[C@@H]3CC=C4C[C@@H](O)CC[C@]4(C)[C@H]3CC[C@]12C [22-OHCR, 22α-hydroxycampesterol] | dramatic elongation response | rescued | more effective in the light | not rescued | – | – | – | – | – | –
2 | CC(C)[C@H](C)[C@@H](O)[C@H](O)[C@@H](C)[C@H]1CC[C@H]2[C@@H]3COC(=O)[C@H]4C[C@H](O)[C@H](O)C[C@]4(C)[C@H]3CC[C@]12C [BL, 2α, 3α, 22(R), 23(R)-tetrahydroxy-24(S)-methyl-B-homo-7-oxa-5α-cholestan-6-one] | – | – | – | – | highest bioactivity | approximately the same degree of response as its precursor compounds at 10^−6 M | restored to wild-type height | – | – | –
3 | CC(C)[C@H](C)C[C@H](O)[C@@H](C)[C@H]1CC[C@H]2[C@@H]3CC(=O)[C@H]4C[C@@H](O)CC[C@]4(C)[C@H]3CC[C@]12C [CT, Cathasterone] | – | rescued | – | – | – | – | – | 3 | ≥ 3×10^−7 M | ~500
